# Assays:
# [1] = biological target: mouse TRPV1 Y512A mutant (Mus musculus, UniProt Q704Y3, Y512A); type: cell-based; details: saturating concentration for the wildtype channel; whole-cell recording
# [2] = biological target: T1, mouse TRPV1 (wildtype) (Mus musculus, UniProt Q704Y3); details: WT channel; cited from earlier work
# [3] = biological target: T1, mouse TRPV1 (wildtype); assay: Whole-cell patch-clamp of wild-type TRPV1 in HEK293 cells; type: cell-based
# [4] = biological target: mouse TRPV1 T551V mutant (Mus musculus, UniProt Q704Y3, T551V); assay: cell-based; type: cell-based
# Chain of mouse TRPV1 T551V mutant (Q704Y3 whole entry T551V): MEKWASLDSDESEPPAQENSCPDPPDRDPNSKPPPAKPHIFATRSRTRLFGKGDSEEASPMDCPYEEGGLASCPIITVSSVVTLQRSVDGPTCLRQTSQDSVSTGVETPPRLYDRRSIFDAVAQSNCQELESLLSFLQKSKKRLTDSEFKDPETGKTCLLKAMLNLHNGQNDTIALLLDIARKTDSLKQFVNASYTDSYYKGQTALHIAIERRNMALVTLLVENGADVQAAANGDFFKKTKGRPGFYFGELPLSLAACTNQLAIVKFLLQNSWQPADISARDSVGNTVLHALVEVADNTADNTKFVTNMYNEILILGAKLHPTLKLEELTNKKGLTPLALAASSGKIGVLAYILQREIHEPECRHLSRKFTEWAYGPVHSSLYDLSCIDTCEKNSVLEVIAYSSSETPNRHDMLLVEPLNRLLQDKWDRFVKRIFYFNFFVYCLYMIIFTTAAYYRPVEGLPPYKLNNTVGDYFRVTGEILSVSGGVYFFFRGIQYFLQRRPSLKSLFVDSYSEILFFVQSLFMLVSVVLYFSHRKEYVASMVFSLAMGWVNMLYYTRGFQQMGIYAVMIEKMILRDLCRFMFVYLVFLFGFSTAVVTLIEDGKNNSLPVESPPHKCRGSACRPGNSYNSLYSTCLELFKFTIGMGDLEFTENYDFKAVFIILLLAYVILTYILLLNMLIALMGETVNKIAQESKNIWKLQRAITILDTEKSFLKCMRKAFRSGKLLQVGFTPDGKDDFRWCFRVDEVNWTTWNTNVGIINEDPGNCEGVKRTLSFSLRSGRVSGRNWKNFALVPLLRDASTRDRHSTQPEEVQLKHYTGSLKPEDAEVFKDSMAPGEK
# [5] = biological target: mouse TRPV1 E571A mutant (Mus musculus, UniProt Q704Y3, E571A); assay: Whole-cell patch-clamp of TRPV1 E571A mutant; type: cell-based; details: whole-cell recording
# Chain of mouse TRPV1 E571A mutant (Q704Y3 whole entry E571A): as the sequence (Q704Y3 whole entry T551V) above, with V551T, E571A counted along it
# T1 sequence (Q704Y3 whole entry): as the sequence (Q704Y3 whole entry T551V) above, with V551T counted along it
# Chain of mouse TRPV1 Y512A mutant (Q704Y3 whole entry Y512A): as the sequence (Q704Y3 whole entry T551V) above, with Y512A, V551T counted along it
activation of the Y512A mutant [1],EC50 [3],activation of the E571A mutant [5],"shift of activation to higher concentration, T551V versus wildtype [4]",Structure (SMILES),maximum open probability (Po_max) [2],EC50 [4]
largely activated,,,,"NCCOB(c1ccccc1)c1ccccc1 [2-APB, 2-aminoethyl diphenylborinate]",~100%,
,290 ± 80 nM,barely opened,,"CCCCCCCC/C=C\CCCCCCCC(=O)NCCc1ccc(O)c(O)c1 [OLDA, N-oleoyldopamine]",,540 ± 140 nM
activated,146 ± 39 nM,can still activate,about 10 fold,COc1cc(CNC(=O)CCCC/C=C/C(C)C)ccc1O [capsaicin],,

Structure (SMILES),activation of the Y512A mutant [1],EC50 [3],activation of the E571A mutant [5],"shift of activation to higher concentration, T551V versus wildtype [4]",maximum open probability (Po_max) [2],EC50 [4]
"CCCCC/C=C\C/C=C\C/C=C\C/C=C\CCCC(=O)NCCO [AEA, anandamide]",,6020 ± 1230 nM,barely opened,,,4880 ± 780 nM
